Measurements published in patent publication US20260274856A1, “COVALENT CEREBLON LIGANDS” (C4 THERAPEUTICS, INC., priority 2023, published 2026).
Where two headings read alike, the source gives them in different places.

Key:
GSPT1 = GSPT1 (Homo sapiens, UniProt P15170+Q96SW2); experiment: GSPT1 HiBiT Degradation Assay in 293T.114 cells; details: for HIBIT-Degradation 293T.114 GSPT1 24 hours IP nM / DC50: 293T.114 cells, 24 hours; for HIBIT-Degradation 293T.114 GSPT1 24 hours IP nM: inflection point of the dose-response curve; for DC50: read-out: HIBIT-Degradation 293T.114 GSPT1 24 hours DC50 nM; for Emax: read-out: HIBIT-Degradation 293T.114 GSPT1 24 hours Emax
GSPT1, sequence (Q96SW2 whole entry): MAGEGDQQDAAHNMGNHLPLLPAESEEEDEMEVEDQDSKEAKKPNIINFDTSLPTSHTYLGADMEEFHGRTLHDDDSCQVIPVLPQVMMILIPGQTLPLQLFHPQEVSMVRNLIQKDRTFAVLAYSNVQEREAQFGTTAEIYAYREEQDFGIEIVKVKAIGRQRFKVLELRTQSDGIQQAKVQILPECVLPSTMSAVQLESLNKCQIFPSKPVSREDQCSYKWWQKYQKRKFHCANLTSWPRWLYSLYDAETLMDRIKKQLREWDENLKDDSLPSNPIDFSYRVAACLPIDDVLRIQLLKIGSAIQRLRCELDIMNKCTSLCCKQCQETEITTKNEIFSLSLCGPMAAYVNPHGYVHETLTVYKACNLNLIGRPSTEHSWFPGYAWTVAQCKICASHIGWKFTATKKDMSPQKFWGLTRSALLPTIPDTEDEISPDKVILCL
GSPT1, sequence (Q16531 2-1140, further chain): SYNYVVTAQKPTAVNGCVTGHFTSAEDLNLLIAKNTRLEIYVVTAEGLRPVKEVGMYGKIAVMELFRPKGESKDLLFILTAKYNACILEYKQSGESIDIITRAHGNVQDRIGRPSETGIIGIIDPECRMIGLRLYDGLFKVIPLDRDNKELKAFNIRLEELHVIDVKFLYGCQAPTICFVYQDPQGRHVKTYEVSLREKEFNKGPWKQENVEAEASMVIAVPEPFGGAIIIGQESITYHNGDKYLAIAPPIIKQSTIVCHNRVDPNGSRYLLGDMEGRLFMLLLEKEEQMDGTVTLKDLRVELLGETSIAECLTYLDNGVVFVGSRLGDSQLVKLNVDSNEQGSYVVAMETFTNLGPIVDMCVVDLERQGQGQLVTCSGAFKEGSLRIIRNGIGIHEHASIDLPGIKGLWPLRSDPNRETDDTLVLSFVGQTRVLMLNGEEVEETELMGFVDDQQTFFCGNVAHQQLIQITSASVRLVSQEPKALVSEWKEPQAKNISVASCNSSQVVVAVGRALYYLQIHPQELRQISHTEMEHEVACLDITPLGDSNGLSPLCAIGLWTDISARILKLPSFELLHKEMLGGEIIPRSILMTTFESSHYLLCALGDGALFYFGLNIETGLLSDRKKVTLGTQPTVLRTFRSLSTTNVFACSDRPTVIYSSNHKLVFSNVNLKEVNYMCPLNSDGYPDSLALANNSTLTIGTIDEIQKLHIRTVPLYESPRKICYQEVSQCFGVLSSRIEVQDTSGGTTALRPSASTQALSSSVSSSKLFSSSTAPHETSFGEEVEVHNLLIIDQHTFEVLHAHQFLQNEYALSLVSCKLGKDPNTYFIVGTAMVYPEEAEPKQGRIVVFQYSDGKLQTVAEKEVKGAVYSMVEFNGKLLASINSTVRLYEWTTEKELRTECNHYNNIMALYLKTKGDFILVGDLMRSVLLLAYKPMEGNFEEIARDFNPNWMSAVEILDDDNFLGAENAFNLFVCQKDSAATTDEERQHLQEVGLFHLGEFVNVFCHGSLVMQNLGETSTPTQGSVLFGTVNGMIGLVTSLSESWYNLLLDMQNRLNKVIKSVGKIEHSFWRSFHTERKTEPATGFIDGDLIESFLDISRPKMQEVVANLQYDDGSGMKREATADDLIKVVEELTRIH
GSPT1, sequence (P15170 whole entry): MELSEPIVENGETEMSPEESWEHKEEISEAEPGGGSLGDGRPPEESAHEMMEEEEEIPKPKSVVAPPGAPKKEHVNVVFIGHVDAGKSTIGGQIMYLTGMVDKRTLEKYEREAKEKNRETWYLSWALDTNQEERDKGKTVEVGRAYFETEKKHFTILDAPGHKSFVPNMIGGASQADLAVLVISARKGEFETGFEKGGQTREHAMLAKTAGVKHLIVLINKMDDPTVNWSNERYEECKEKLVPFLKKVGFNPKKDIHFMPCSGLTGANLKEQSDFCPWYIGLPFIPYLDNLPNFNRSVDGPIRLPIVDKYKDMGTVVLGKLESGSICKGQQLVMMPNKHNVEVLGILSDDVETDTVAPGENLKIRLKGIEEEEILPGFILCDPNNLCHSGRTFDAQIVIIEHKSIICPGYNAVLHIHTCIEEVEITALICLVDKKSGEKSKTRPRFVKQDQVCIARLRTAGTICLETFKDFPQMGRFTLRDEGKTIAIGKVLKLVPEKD

[1] = tested on: A375—NRASQ^61K cells (cell line A375.11); experiment: CTGlo (CellTiter-Glo 2.0) Cell Viability Assay; assay type: cell-based; details: for Emax: lowest % viability achieved
Method: Compounds of the present invention were tested for their effect on the viability of A375—NRASQ^61K cells by quantification of ATP using the CellTiter-Glo® 2.0 Cell Viability Assay (Catalog No. G9243, Promega, Madison, WI, USA). This assay produces a luminescent signal in the presence of ATP, which is indicative of metabolically active cells, making the luminescence readout proportional to the number of viable cells. A375—NRASQ^61K cells, also referred to here as cell line A375.11, (harboring BRAF homozygous V600E mutation and NRAS homozygous Q61K mutation) were purchased from ATCC (Catalog No. CRL-1619IG-2, Manassas, VA, USA).
Cells were also plated to a 384-well plate with no compound treatment, to which CellTiter-Glo® reagent was added and luminescence was read right after plating to act as a baseline signal at time of plating (To).
DMSO treated cells with no CellTiter-Glo® reagent added were used as the background or positive control (P). Viability was determined by subtracting out the average background signal (P) and normalized to the average untreated signal (N) set at 100%.

[2] = 96 hours, IP, read-out: CTGlo A375.11 96 hours IP
[3] = half-maximal inhibition of cell growth, table title: A375.11 96 hours, read-out: CTGlo A375.11 96 hours GI50
[4] = 96 h, IP, read-out: CTGlo A375.11 96 hours IP

| GI50 [1, 2] [µM] | SMILES | HIBIT-Degradation 293T.114 GSPT1 24 hours IP nM (GSPT1) | DC50 (GSPT1) [nM] | Emax (GSPT1) [%] | Emax ([1]; 96 hours) [%] | GI50 [1, 3] [µM] | GI50 [1, 4] [µM] |
| --- | --- | --- | --- | --- | --- | --- | --- |
|  | CCN(C)S(=O)(=O)Nc1ccc(F)c(Oc2ccc3ncn([C@@H]4COC5(CCN(C(=O)CN6CCC(c7ccc(C8CCC(=O)NC8=O)cc7OS(=O)(=O)F)CC6)CC5)C4)c(=O)c3c2)c1C#N (stereo partly drawn) [drawing 1231] | ** (<10 μM and >1 μM is **) | > 10000 | < 60 |  |  |  |
| 1 to 10 | CCN(C)S(=O)(=O)Nc1ccc(F)c(Oc2ccc3ncn([C@H]4COC5(CCN(C(=O)CN6CCC(c7ccc(NC8CCC(=O)NC8=O)cc7OS(C)(=O)=O)CC6)CC5)C4)c(=O)c3c2)c1C#N (stereo partly drawn) [drawing 1176] |  |  |  | < 60 | > 10 |  |
|  | CCN(C)S(=O)(=O)Nc1ccc(F)c(Oc2ccc3ncn([C@H]4COC5(CCN(C(=O)CN6CCC(c7ccc(C8CCC(=O)NC8=O)cc7OS(=O)(=O)F)CC6)CC5)C4)c(=O)c3c2)c1C#N (stereo partly drawn) [drawing 1169] |  |  |  | < 60 | > 10 | 1 to 10 |
|  | CCN(C)S(=O)(=O)Nc1ccc(F)c(Oc2ccc3ncn([C@H]4COC5(CCN(C(=O)CN6CCN(c7ccc(N8CCC(=O)NC8=O)cc7OS(=O)(=O)F)CC6)CC5)C4)c(=O)c3c2)c1C#N [drawing 1172] |  |  |  | 60 to 95 | > 10 | > 10 |
|  | CCN(C)S(=O)(=O)Nc1ccc(F)c(Oc2ccc3ncn([C@@H]4COC5(CCN(C(=O)CN6CCC(c7ccc(OC8CCC(=O)NC8=O)cc7OS(=O)(=O)F)CC6)CC5)C4)c(=O)c3c2)c1C#N (stereo partly drawn) [drawing 1186] |  |  |  | 60 to 95 | > 10 | > 10 |
|  | CCN(C)S(=O)(=O)Nc1ccc(F)c(Oc2ccc3ncn([C@H]4COC5(CCN(C(=O)CN6CCN(c7ccc(C8CCC(=O)NC8=O)cc7OS(=O)(=O)F)CC6)CC5)C4)c(=O)c3c2)c1C#N (stereo partly drawn) [drawing 1232] | ** (<10 μM and >1 μM is **) | > 10000 | 60 to 95 |  |  |  |
| 1 to 10 | CCN(C)S(=O)(=O)Nc1ccc(F)c(Oc2ccc3ncn([C@H]4COC5(CCN(C(=O)CN6CCC(c7ccc(N8CCC(=O)NC8=O)cc7OS(C)(=O)=O)CC6)CC5)C4)c(=O)c3c2)c1C#N [drawing 1174] |  |  |  | < 60 | 1 to 10 |  |
| > 10 | CCN(C)S(=O)(=O)Nc1ccc(F)c(Oc2ccc3ncn([C@H]4COC5(CCN(C(=O)CN6CCC(c7ccc(OC8CCC(=O)NC8=O)cc7OS(C)(=O)=O)CC6)CC5)C4)c(=O)c3c2)c1C#N (stereo partly drawn) [drawing 1184] |  |  |  | 60 to 95 | > 10 |  |
|  | CCN(C)S(=O)(=O)Nc1ccc(F)c(Oc2ccc3ncn([C@H]4COC5(CCN(C(=O)CN6CCN(c7ccc(C8CCC(=O)NC8=O)cc7OS(=O)(=O)F)CC6)CC5)C4)c(=O)c3c2)c1C#N (stereo partly drawn) [drawing 1170] |  |  |  | 60 to 95 | > 10 | < 1 |
|  | CCN(C)S(=O)(=O)Nc1ccc(F)c(Oc2ccc3ncn([C@@H]4COC5(CCN(C(=O)CN6CCC(c7ccc(NC8CCC(=O)NC8=O)cc7S(=O)(=O)F)CC6)CC5)C4)c(=O)c3c2)c1C#N (stereo partly drawn) [drawing 1177] |  |  |  | 60 to 95 | > 10 | > 10 |
| > 10 | CCN(C)S(=O)(=O)Nc1ccc(F)c(Oc2ccc3ncn([C@@H]4COC5(CCN(C(=O)CN6CCC(c7ccc(OC8CCC(=O)NC8=O)cc7OS(C)(=O)=O)CC6)CC5)C4)c(=O)c3c2)c1C#N (stereo partly drawn) [drawing 1187] |  |  |  | 60 to 95 | > 10 |  |
